Earlier results on one compound are cited in patent US6960354B1, “Membrane lipid compositions” (Phares Technology BV, priority 1999, dated 2005).

For the compound `O=C(O)c1ccccc1O` [Salicylic acid], the solubility in ethanol result (ethanol) is “soluble”. Under “water”, the solubility in water entry was “only sparingly soluble”.
